Test results reported in EP4667464A1 (Cyrus Therapeutics Inc., priority 2023, dated 2024).
Like-named read-outs stand apart in the source and are kept apart here.

Columns and labels:
SOS1 = biological target: T1, SOS1 (Homo sapiens, UniProt Q07889); assay: SOS-catalyzed nucleotide exchange assay (HTRF, SOS1-mediated GTP loading of KRAS G12D); format: biochemical
T1 construct: HIS-SOS1cat (160 nM; Cytoskeleton, US); His (N); purchased Cytoskeleton
T1 sequence (Q07889 564-1049 limits assumed): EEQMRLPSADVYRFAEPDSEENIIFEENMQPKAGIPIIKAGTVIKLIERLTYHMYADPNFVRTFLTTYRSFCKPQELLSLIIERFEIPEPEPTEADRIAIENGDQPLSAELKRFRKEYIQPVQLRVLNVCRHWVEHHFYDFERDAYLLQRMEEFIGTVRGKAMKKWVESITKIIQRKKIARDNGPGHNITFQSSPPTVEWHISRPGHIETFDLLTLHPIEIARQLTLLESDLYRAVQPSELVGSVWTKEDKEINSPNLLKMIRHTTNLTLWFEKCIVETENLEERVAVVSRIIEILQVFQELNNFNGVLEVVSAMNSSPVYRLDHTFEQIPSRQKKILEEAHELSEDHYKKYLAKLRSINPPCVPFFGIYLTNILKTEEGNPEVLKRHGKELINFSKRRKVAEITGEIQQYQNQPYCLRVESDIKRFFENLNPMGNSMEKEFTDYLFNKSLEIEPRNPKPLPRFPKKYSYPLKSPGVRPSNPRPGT

KRAS G12C::SOS1 = biological target: T2, KRAS G12C::SOS1 (Homo sapiens, UniProt Q07889); assay: KRAS G12C::SOS1 protein-protein interaction (PPI) inhibition assay (HTRF); format: binding
T2 construct: purchased CISBIO 64KRASG12PEH
T2 sequence (Q07889 1-1333): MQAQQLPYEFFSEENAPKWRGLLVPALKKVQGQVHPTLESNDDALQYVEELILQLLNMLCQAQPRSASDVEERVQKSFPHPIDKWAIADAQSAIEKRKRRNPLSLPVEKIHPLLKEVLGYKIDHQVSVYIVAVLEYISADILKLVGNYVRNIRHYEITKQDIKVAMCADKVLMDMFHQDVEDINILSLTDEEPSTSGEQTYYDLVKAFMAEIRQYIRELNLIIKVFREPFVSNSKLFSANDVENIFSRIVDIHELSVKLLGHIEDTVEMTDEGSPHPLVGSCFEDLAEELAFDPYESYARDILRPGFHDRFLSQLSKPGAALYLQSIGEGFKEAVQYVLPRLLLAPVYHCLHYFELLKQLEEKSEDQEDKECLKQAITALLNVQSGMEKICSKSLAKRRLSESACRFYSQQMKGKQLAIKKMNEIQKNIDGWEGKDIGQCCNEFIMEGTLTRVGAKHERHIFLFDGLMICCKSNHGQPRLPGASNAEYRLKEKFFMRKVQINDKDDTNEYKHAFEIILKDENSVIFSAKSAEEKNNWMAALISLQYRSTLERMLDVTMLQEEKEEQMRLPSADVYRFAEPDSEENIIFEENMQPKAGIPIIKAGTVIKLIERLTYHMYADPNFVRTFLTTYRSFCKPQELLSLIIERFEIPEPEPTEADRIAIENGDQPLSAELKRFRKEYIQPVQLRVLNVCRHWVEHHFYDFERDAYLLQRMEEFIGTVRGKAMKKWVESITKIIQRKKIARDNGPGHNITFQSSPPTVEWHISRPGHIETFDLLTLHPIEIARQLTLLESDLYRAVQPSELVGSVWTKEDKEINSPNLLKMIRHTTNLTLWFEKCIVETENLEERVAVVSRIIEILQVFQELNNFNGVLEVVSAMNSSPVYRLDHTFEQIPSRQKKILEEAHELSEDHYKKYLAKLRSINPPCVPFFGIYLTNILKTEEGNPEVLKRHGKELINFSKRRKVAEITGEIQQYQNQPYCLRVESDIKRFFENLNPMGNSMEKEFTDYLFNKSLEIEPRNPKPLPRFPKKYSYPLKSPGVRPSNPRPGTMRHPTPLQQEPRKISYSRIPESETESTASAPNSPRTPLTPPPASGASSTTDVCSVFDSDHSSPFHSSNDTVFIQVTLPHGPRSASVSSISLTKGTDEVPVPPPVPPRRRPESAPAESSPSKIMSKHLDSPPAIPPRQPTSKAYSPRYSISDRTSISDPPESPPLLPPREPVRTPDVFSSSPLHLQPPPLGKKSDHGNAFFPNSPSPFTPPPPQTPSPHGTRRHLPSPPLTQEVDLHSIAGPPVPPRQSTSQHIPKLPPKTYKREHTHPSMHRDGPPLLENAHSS
Method in brief: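 Compounds, at eight 3-fold dilutions from 3 µM, were mixed with GTP-loaded Tag1-KRAS G12C, Tag2-SOS1 and a terbium-cryptate donor plus XL665 acceptor antibody pair. After 2 h at room temperature, time-resolved FRET reported the KRAS–SOS1 interaction.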

[1] = GST-KRAS G12D, HIS-SOS1cat, compound 128 pM to 10 µM, read-out: SOS-catalyzed nucleotide exchange assay
[2] = 8 concentrations from 3 µM, three replicates, read-out: KRAS G12C::SOS1 PPI

IC50 (SOS1; [1])	IC50 (KRAS G12C::SOS1; [2])	SMILES	IC50 (SOS1)	IC50 (KRAS G12C::SOS1)
0.05 to 0.15 µM	> 0.15 µM	C[C@@H](NC(=O)c1cc(C#N)c(=O)n(-c2cncc(-c3cnnn3C)c2)n1)c1cccc(C(F)F)c1F [Example 3-1, 5-cyano-N-[(1R)-1-[3-(difluoromethyl)-2-fluorophenyl]ethyl]-1-[5-(1-methyl-1H-1,2,3-triazol-5-yl)pyridin-3-yl]-6-oxo-1,6-dihydropyridazine-3-carboxamide]	–	–
< 0.05 µM	< 0.05 µM	C[C@@H](NC(=O)c1cc(C#N)c(=O)n(-c2cc(-c3cnnn3C)cnc2F)n1)c1cccc(C(F)(F)CO)c1F [Example 3-3]	–	–
0.05 to 0.15 µM	0.05 to 0.15 µM	C[C@@H](NC(=O)c1cc(C#N)c(=O)n(-c2cc(-c3cnnn3C3CC3)cnc2F)n1)c1cccc(C(F)(F)F)c1F [Example 3-4, 5-cyano-N-[(1R)-1-[2-fluoro-3-(trifluoromethyl)phenyl]ethyl]-1-(5-(1-cyclopropyl-1H-1,2,3-triazol-5-yl)-2-fluoropyridin-3-yl)-6-oxo-1,6-dihydropyridazine-3-carboxamide]	–	–
0.05 to 0.15 µM	0.05 to 0.15 µM	[2H]C([2H])([2H])n1nncc1-c1cnc(F)c(-n2nc(C(=O)N[C@H](C)c3cccc(C(F)(F)F)c3F)cc(C#N)c2=O)c1 [Example 3-5, 5-cyano-N-[(1R)-1-(2-fluoro-3-(trifluoromethyl)phenyl)ethyl]-1-[2-fluoro-5-(1-(methyl-trideuterio)-1H-1,2,3-triazol-5-yl)pyridin-3-yl]-6-oxo-1,6-dihydropyridazine-3-carboxamide]	–	–
0.05 to 0.15 µM	> 0.15 µM	C[C@@H](NC(=O)c1ccc(=O)n(-c2cnc(F)c(-c3cnnn3C)c2)n1)c1cccc(C(F)F)c1F [Example 6-1, N-{(1R)-1-(3-(difluoromethyl)-2-fluorophenyl)ethyl}-1-(6-fluoro-5-(1-methyl-1H-1,2,3-triazol-5-yl)pyridin-3-yl)-6-oxo-1,6-dihydropyridazine-3-carboxamide]	–	–
< 0.05 µM	< 0.05 µM	C[C@@H](NC(=O)c1ccc(=O)n(-c2cncc(-c3cnnn3[C@@H]3CCNC3)c2)n1)c1cccc(C(F)(F)F)c1F [Example 6-9, N-{(R)-1-[2-fluoro-3-(trifluoromethyl)phenyl]ethyl}-6-oxo-1-(5-(1-((R)-pyrrolidin-3-yl)-1H-1,2,3-triazol-5-yl)pyridin-3-yl)-1,6-dihydropyridazine-3-carboxamide]	–	–
< 0.05 µM	0.05 to 0.15 µM	C[C@@H](NC(=O)c1ccc(=O)n(-c2cncc(-c3cnnn3C3CN(CCO)C3)c2)n1)c1cccc(C(F)(F)F)c1F [Example 20-1, (R)-N-(1-(2-fluoro-3-(trifluoromethyl)phenyl)ethyl)-1-(5-(1-(1-(2-hydroxyethyl)azetidin-3-yl)-1H-1,2,3-triazol-5-yl)pyridin-3-yl)-6-oxo-1,6-dihydropyridazine-3-carboxamide]	–	–

The remaining lines, values behind:

SMILES	IC50 (SOS1; [1])	IC50 (KRAS G12C::SOS1; [2])	IC50 (SOS1)	IC50 (KRAS G12C::SOS1)
C[C@@H](NC(=O)c1cc(C(F)(F)F)c(=O)n(-c2cncc(-c3cnnn3C)c2)n1)c1cccc(C(F)(F)F)c1F [Example 1-69, N-[(R)-1-[2-fluoro-3-(trifluoromethyl)phenyl]ethyl]-1-[5-(1-methyl-1H-1,2,3-triazol-5-yl)-3-pyridyl]-6-oxo-5-(trifluoromethyl)-pyridazine-3-carboxamide]	0.05 to 0.15 µM	< 0.05 µM	–	–
Cc1c([C@@H](C)NC(=O)c2ccc(=O)n(-c3cncc(-c4cnnn4C)c3)n2)cc(N)cc1C(F)(F)F [Example 2-2, N-[(1R)-1-[5-amino-2-methyl-3-(trifluoromethyl)phenyl]ethyl]-1-[5-(3-methyltriazol-4-yl)-3-pyridyl]-6-oxo-pyridazine-3-carboxamide]	< 0.05 µM	< 0.05 µM	–	–
C[C@@H](NC(=O)c1cc(C#N)c(=O)n(-c2cncc(-c3cnnn3C)c2)n1)c1cccc(C(F)(F)CO)c1F [Example 3, 5-cyano-N-[(1R)-1-[3-(1,1-difluoro-2-hydroxy-ethyl)-2-fluorophenyl]ethyl]-1-[5-(3-methyltriazol-4-yl)-3-pyridyl]-6-oxo-pyridazine-3-carboxamide]	–	–	> 0.15 µM	> 0.15 µM
C[C@@H](NC(=O)c1ccc(=O)n(-c2cnnc(-c3cnnn3C)c2)n1)c1cccc(C(F)F)c1F [Example 5, N-[(1R)-1-[2-fluoro-3-(difluoromethyl)phenyl]ethyl]-1-[6-(3-methyltriazol-4-yl)pyridazin-4-yl]-6-oxo-pyridazine-3-carboxamide]	–	–	> 0.15 µM	> 0.15 µM
C[C@@H](NC(=O)c1ccc(=O)n(-c2cc(-c3cnnn3C3CC3)cnc2F)n1)c1cccc(C(F)(F)CO)c1F [Example 6-8]	–	–	< 0.05 µM	< 0.05 µM
Cc1cc(C(=O)N[C@H](C)c2cccc(C(F)(F)COS(=O)(=O)c3ccccn3)c2F)nn(-c2cncc(-c3cnnn3C)c2)c1=O [Example 8, N-[(R)-1-{3-[1,1-difluoro-2-(2-pyridylsulfonyloxy)ethyl]-2-fluorophenyl}ethyl]-5-methyl-1-[5-(1-methyl-1H-1,2,3-triazol-5-yl)-3-pyridyl]-6-oxo-1,6-dihydropyridazine-3-carboxamide]	< 0.05 µM	< 0.05 µM	–	–
C[C@@H](NC(=O)c1ccc(=O)n(-c2cncc(-c3cnnn3CCO)c2)n1)c1cccc(C(F)(F)F)c1F [Example 11, N-{(R)-1-[2-fluoro-3-(trifluoromethyl)phenyl]ethyl}-1-{5-[1-(2-hydroxyethyl)-1H-1,2,3-triazol-5-yl]-3-pyridyl}-6-oxo-1,6-dihydropyridazine-3-carboxamide]	< 0.05 µM	0.05 to 0.15 µM	–	–
C[C@@H](NC(=O)c1cc(Cl)c(=O)n(-c2cncc(-c3c(Cl)nnn3C)c2)n1)c1cccc(C(F)F)c1F [Example 12, N-{(R)-1-[3-(difluoromethyl)-2-fluorophenyl]ethyl}-5-chloro-1-[5-(4-chloro-1-methyl-1H-1,2,3-triazol-5-yl)-3-pyridyl]-6-oxo-1,6-dihydropyridazine-3-carboxamide]	0.05 to 0.15 µM	> 0.15 µM	–	–
C[C@@H](NC(=O)c1ccc(=O)n(-c2cncc(-c3c(Cl)nnn3C)c2)n1)c1cccc(C(F)F)c1F [Example 13, N-{(R)-1-[3-(difluoromethyl)-2-fluorophenyl]ethyl}-1-[5-(4-chloro-1-methyl-1H-1,2,3-triazol-5-yl)-3-pyridyl]-6-oxo-1,6-dihydropyridazine-3-carboxamide]	0.05 to 0.15 µM	> 0.15 µM	–	–
C[C@@H](NC(=O)c1ccc(=O)n(-c2cncc(-c3cnnn3C3CNC3)c2)n1)c1cccc(C(F)(F)F)c1F [Example 19]	< 0.05 µM	< 0.05 µM	–	–
C[C@@H](NC(=O)c1ccc(=O)n(-c2cncc(-c3cnnn3C3CN(C)C3)c2)n1)c1cccc(C(F)(F)F)c1F [Example 20, N-{(R)-1-[2-fluoro-3-(trifluoromethyl)phenyl]ethyl}-1-{5-[1-(1-methyl-3-azetidinyl)-1H-1,2,3-triazol-5-yl]-3-pyridyl}-6-oxo-1,6-dihydropyridazine-3-carboxamide]	< 0.05 µM	< 0.05 µM	–	–
